From the NIST ThermoML archive (doi:10.1021/acs.jced.9b00752)
Several values for one entry are separate records, joined by “and”; a condition that tells them apart may be missing. Equal entries are not always repeated.

Test: mn = molality of the nth substance listed, in mol/kg
Settings: 100 kPa, Liquid, Vibrating tube method

N[C@@H](Cc1ccc(O)cc1)C(=O)O [3-(p-hydroxyphenyl)-L-alanine] + O
mass density
Settings	278.65 K	279.15 K	279.65 K	280.15 K	280.65 K	281.15 K	281.65 K	282.15 K	282.65 K	283.15 K
m1 = 0.0005	999.962 kg/m3	999.948 kg/m3	999.932 kg/m3	999.91 kg/m3	999.886 kg/m3	999.858 kg/m3	999.824 kg/m3	999.79 kg/m3	999.751 kg/m3	999.71 kg/m3
m1 = 0.001	999.995 kg/m3	999.981 kg/m3	999.964 kg/m3	999.941 kg/m3	999.918 kg/m3	999.89 kg/m3	999.857 kg/m3	999.821 kg/m3	999.781 kg/m3	999.741 kg/m3
m1 = 0.0011	1000.02 kg/m3	1000.01 kg/m3	999.989 kg/m3	999.968 kg/m3	999.946 kg/m3	999.917 kg/m3	999.883 kg/m3	999.848 kg/m3	999.809 kg/m3	999.765 kg/m3
m1 = 0.0022	1000.09 kg/m3	1000.08 kg/m3	1000.06 kg/m3	1000.04 kg/m3	1000.01 kg/m3	999.984 kg/m3	999.951 kg/m3	999.916 kg/m3	999.876 kg/m3	999.835 kg/m3
m1 = 0.0026	1000.11 kg/m3	1000.1 kg/m3	1000.08 kg/m3	1000.06 kg/m3	1000.03 kg/m3	1000 kg/m3	999.971 kg/m3	999.937 kg/m3	999.897 kg/m3	999.854 kg/m3
m1 = 0.0035	1000.18 kg/m3	1000.16 kg/m3	1000.14 kg/m3	1000.12 kg/m3	1000.1 kg/m3	1000.07 kg/m3	1000.03 kg/m3	1000 kg/m3	999.961 kg/m3	999.919 kg/m3
m1 = 0.0036	1000.18 kg/m3	1000.16 kg/m3	1000.14 kg/m3	1000.12 kg/m3	1000.1 kg/m3	1000.07 kg/m3	1000.04 kg/m3	1000 kg/m3	999.962 kg/m3	999.92 kg/m3
m1 = 0.0038	1000.18 kg/m3	1000.17 kg/m3	1000.15 kg/m3	1000.13 kg/m3	1000.1 kg/m3	1000.08 kg/m3	1000.04 kg/m3	1000.01 kg/m3	999.967 kg/m3	999.925 kg/m3
m1 = 0.0045	1000.23 kg/m3 and 1000.24 kg/m3	1000.22 kg/m3 and 1000.23 kg/m3	1000.2 kg/m3 and 1000.21 kg/m3	1000.18 kg/m3 and 1000.19 kg/m3	1000.15 kg/m3 and 1000.16 kg/m3	1000.13 kg/m3 and 1000.14 kg/m3	1000.09 kg/m3 and 1000.1 kg/m3	1000.06 kg/m3 and 1000.07 kg/m3	1000.02 kg/m3 and 1000.03 kg/m3	999.976 kg/m3 and 999.985 kg/m3
m1 = 0.0047	1000.24 kg/m3	1000.22 kg/m3	1000.21 kg/m3	1000.18 kg/m3	1000.16 kg/m3	1000.13 kg/m3	1000.1 kg/m3	1000.06 kg/m3	1000.02 kg/m3	999.98 kg/m3
m1 = 0.0053	1000.28 kg/m3 and 1000.29 kg/m3	1000.27 kg/m3 and 1000.28 kg/m3	1000.25 kg/m3 and 1000.26 kg/m3	1000.23 kg/m3 and 1000.24 kg/m3	1000.2 kg/m3 and 1000.21 kg/m3	1000.17 kg/m3 and 1000.18 kg/m3	1000.14 kg/m3 and 1000.15 kg/m3	1000.1 kg/m3 and 1000.12 kg/m3	1000.07 kg/m3 and 1000.08 kg/m3	1000.02 kg/m3 and 1000.03 kg/m3
m1 = 0.0055	1000.28 kg/m3	1000.27 kg/m3	1000.25 kg/m3	1000.23 kg/m3	1000.2 kg/m3	1000.17 kg/m3	1000.14 kg/m3	1000.1 kg/m3	1000.07 kg/m3	1000.02 kg/m3
